Counter-ions that a name gives are not always drawn.
Tested on: MTT (mouse pheochromocytoma)
Assay: IC50 of cell viability (ATP content)
Settings: (24 or 48 h)
Outline: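 MTT mouse pheochromocytoma cells, cultured overnight at 37°C, 5% CO2 in DMEM with 5% FBS and 1% horse serum, were exposed in white 1536-well plates to library compounds in DMSO at final 0.5 nM to 46 µM (8 concentrations) for 24 or 48 hrs. CellTiter-Glo luminescence was normalised to positive-control (100%) and DMSO (0%) wells. A four-parameter logistic fit gave the IC50.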

Structure (SMILES) | IC50 of cell viability
CC1(C)O[C@@H]2C[C@H]3[C@@H]4C[C@H](F)C/5=C/C(=O)/C=C\[C@]5(C)[C@@]4(F)[C@@H](O)C[C@]3(C)[C@@]2(O1)C(=O)CO [Fluocinolone acetonide] | > 46 µM
O=C1OC2(c3ccc(O)cc3Oc3cc(O)ccc32)c2ccccc21 [Fluorescein (free acid)] | > 46 µM
O=C(O)c1ccccc1-c1c2ccc(=O)cc-2oc2cc(O)ccc12 [Fluorescein sodium] | > 46 µM
C[C@@H]\1C[C@@H]2[C@H]3CC[C@](O)(C(C)=O)[C@]3(C)C[C@H](O)[C@]2(F)[C@@]4(C)\C=C/C(=O)/C=C14 [Fluorometholone] | > 46 µM
CC1(O)CCC2C3CCC4=CC(=O)CCC4(C)C3(F)C(O)CC21C (configuration not stated) [Fluoxymesterone] | > 46 µM
CCOC(=O)Nc1ccc(NCc2ccc(F)cc2)nc1N.O=C(O)/C=C\C(=O)O [Flupirtine maleate] | > 46 µM
O=C(O)CCC/C=C\C[C@@H]1[C@@H](/C=C/[C@@H](O)COc2cccc(C(F)(F)F)c2)[C@H](O)C[C@@H]1O [Fluprostenol sodium] | > 46 µM
CC1(C)O[C@@H]2C[C@@H]3[C@@H]4C[C@@H](F)\C5=C\C(=O)CC[C@]5(C)[C@H]4[C@H](O)C[C@@]3(C)[C@]2(O1)C(=O)CO [Flurandrenolide] | > 46 µM
NP(N)(=O)NC(=O)c1ccc(F)cc1 [Flurofamide] | > 46 µM
CC(C)C(=O)Nc1ccc([N+](=O)[O-])c(C(F)(F)F)c1 [Flutamide] | > 46 µM
CCC(=O)O[C@]1([C@@H](C)C[C@H]2[C@H]3C[C@@H](F)\C4=C\C(=O)\C=C/[C@@]4(C)[C@@]3(F)[C@@H](O)C[C@]12C)C(=O)SCF [Fluticasone propionate] | > 46 µM
CC(C)Oc1cccc(NC(=O)c2ccccc2C(F)(F)F)c1 [Flutolanil] | > 46 µM
C[N+]1(CCF)[C@@H]2CC[C@@H]1CC(OC(=O)C(O)(c1ccccc1)c1ccccc1)C2 (some centres not stated) [Flutropium] | > 46 µM
CC(Cc1ccccc1)NC=O (configuration not stated) [Formetorex] | > 46 µM
C1CN(P2(N3CC3)=NP(N3CC3)(N3CC3)=NP(N3CC3)(N3CC3)=N2)CCO1 (configuration not stated) [Fotretamine] | > 46 µM
C[C@]12CC[C@@H]3c4ccc(O)cc4C[C@@H](CCCCCCCCC[S+]([O-])CCCC(F)(F)C(F)(F)F)C3[C@@H]1CC[C@@H]2O (some centres not stated) [Fulvestrant] | > 46 µM
CCCCCC(O)C1C(=O)OC(C)C(O)C=CC=CC=CC=CC=C(C)C(O)C(O)C(O)CC(O)CC(O)CC(O)CC(O)CC1O (configuration not stated) [Fungichromin] | > 46 µM
O=C1O[C@H](CN2CCOCC2)CN1/N=C\c1ccc([N+](=O)[O-])o1 [Furaltadone hydrochloride] | > 46 µM
O=C1OCCN1/N=C/c1ccc([N+](=O)[O-])o1 [Furazolidone] | > 46 µM
O=Cc1ccco1 [Furfural] | > 46 µM

Structure (SMILES) | IC50 of cell viability
CCCCc1ccc(C(=O)O)nc1 [Fusaric acid] | > 46 µM
NCCCC(=O)O [GABA] | > 46 µM
COC1=CC=C2CN(C)CC[C@@]34\C=C/[C@H](O)C[C@@H]3OC1=C24 [GALANTHAMINE] | > 46 µM
CC[N+](CC)(CC)CCOc1cccc(OCC[N+](CC)(CC)CC)c1OCC[N+](CC)(CC)CC [GALLAMINE] | > 46 µM
CC(=O)[C@H]1CC[C@H]2[C@@H]3CC[C@H]4C[C@](C)(O)CC[C@]4(C)[C@H]3CC[C@]12C [GANAXOLONUM] | > 46 µM
NC/1=N/C(=O)N(/C=C1)[C@@H]2O[C@H](CO)[C@@H](O)C2(F)F [GEMCITABINE HYDROCHLORIDE] | > 46 µM
CO/N=C1\CN(c2nc3c(cc2F)c(=O)c(C(=O)O)cn3C2CC2)CC1CN.C[S+](=O)([O-])O (configuration not stated) [GEMIFLOXACIN MESYLATE] | > 46 µM
CC(C)=CCC/C(C)=C/CO [GERANIOL] | > 46 µM
C#C[C@]1(O)CC[C@H]2[C@@H]3CCC4=CC(=O)CCC4=C3C=C[C@@]21CC [GESTRINONE] | > 46 µM
Oc1cc(O)c(Cl)cn1 [GIMERACIL] | > 46 µM
C\C1=C\C(=O)OC2=CC(=CC=C12)OCC#C [GIPARMENUM] | > 46 µM
O=C(O)[C@@H](O)[C@@H](O)[C@H](O)[C@H](O)CO [GLUCONIC ACID, BARIUM SALT] | > 46 µM
O=C1OC(CO)C(O)C(O)C1O (configuration not stated) [GLUCONOLACTONE] | > 46 µM
Cl.N[C@@H]1C(O)OC(CO)C(O)C1O (some centres not stated) [GLUCOSAMINE HYDROCHLORIDE] | > 46 µM
NC(=O)[C@H]1O[C@@H](O)[C@H](O)[C@@H](O)[C@@H]1O [GLUCURONAMIDE] | > 46 µM
NC(CCC(=O)N[C@@H](CS)C(=O)NCC(=O)O)C(=O)O (some centres not stated) [GLUTATHIONE] | > 46 µM
OCC(O)CO [GLYCERIN] | > 46 µM
CCCCCCCCCCCC(=O)OCC(O)CO (configuration not stated) [GLYCEROL MONOLAURATE] | > 46 µM
CCCCCCCCCCCCCCCCCC(=O)OCC(O)CO (configuration not stated) [GLYCERYL MONOSTEARATE] | > 46 µM

Other lines, results leading:

IC50 of cell viability | Structure (SMILES)
> 46 µM | CNC[C@H](O)[C@H](O)[C@H](O)[C@H](O)CO.Cc1c(Nc2ncccc2C(=O)O)cccc1C(F)(F)F [Flunixin meglumine]
> 46 µM | CN1CCN(C2=Nc3cc(F)ccc3Cc3ccccc32)CC1 [Fluperlapine]
> 46 µM | CCOC(=O)Nc1ccc(NCc2ccc(F)cc2)nc1N [Flupirtine maleate salt]
> 46 µM | C=C1C[C@@H]2[C@H]3CCC4=CC(=O)C=C[C@]4(C)[C@@]3(F)[C@@H](O)C[C@]2(C)[C@]1(O)C(=O)COC(C)=O [Fluprednidene acetate]
> 46 µM | C[C@]12C=CC(=O)C=C1[C@@H](F)C[C@@H]1[C@@H]2[C@@H](O)C[C@@]2(C)[C@H]1CC[C@]2(O)C(=O)CO [Fluprednisolone]
> 46 µM | CC(=O)O[C@H](C)OC(=O)[C@@H](C)c1ccc(-c2ccccc2)c(F)c1 [Flurbiprofen Axetil]
> 46 µM | C[C@@H](C(=O)O)c1ccc(-c2ccccc2)c(F)c1 [Flurbiprofen]
> 46 µM | CC(=O)O[C@]1(C(C)=O)CCC2C3CCC4=CC(=O)CCC4(C)C3(F)C(O)CC21C (some centres not stated) [Flurogestone acetate]
> 46 µM | CC(C)n1c(/C=C/[C@H](O)C[C@H](O)CC(=O)[O-])c(-c2ccc(F)cc2)c2ccccc21 [Fluvastatina]
> 46 µM | Nc1nc(O)c2nc(CNc3ccc(C(=O)N[C@@H](CCC(=O)O)C(=O)O)cc3)cnc2n1 [Folic acid]
> 46 µM | CN(CC(=O)[NH+]1CCOCC1)Cc1c(Cl)cccc1NC(=O)c1ccccc1 [Fominoben hydrochloride]
> 46 µM | COc1ccc(C[C@H](C)NC[C@@H](O)c2ccc(O)c(NC=O)c2)cc1 [Formoterol hemifumarate]
> 46 µM | NNC(=O)CP(=O)(c1ccccc1)c1ccccc1 [Fosenazida]
> 46 µM | O=P(O)(O)OC(Cn1cncn1)(Cn1cncn1)c1ccc(F)cc1F [Fosfluconazole]
> 46 µM | COc1ccc2nc(NC(=O)Nc3ccccc3)sc2c1 [Frentizole]
> 46 µM | CN[C@@H]1CCc2[nH]c3ccc(C(N)=O)cc3c2C1.O.O=C(O)CCC(=O)O [Frovatriptan Succinate Monohydrate]
> 46 µM | Cc1cccc(C)c1NC(=O)c1ccccc1C(=O)O [Ftaxilida]
> 46 µM | CN1CCN(CCC(=O)N2c3ccccc3Sc3ccc(C(F)(F)F)cc32)CC1 [Ftormetazine]
> 46 µM | O=C(CCN1CCN(CCO)CC1)N1c2ccccc2Sc2ccc(C(F)(F)F)cc21 [Ftorpropazine]
> 46 µM | N[S+](=O)([O-])c1cc(C(=O)O)c(NCc2ccco2)cc1Cl [Furosemide]
> 46 µM | C/C(=C(\CCO)SSCC1CCCO1)N(C=O)Cc1cnc(C)nc1N (configuration not stated) [Fursultiamine]
> 46 µM | CC(=O)O[C@@H]1C[C@]2(C)[C@H](C[C@@H](O)[C@H]3[C@@]4(C)CC[C@@H](O)[C@@H](C)[C@@H]4CC[C@@]32C)/C1=C(\CCC=C(C)C)C(=O)[O-].[Na+] [Fusidic acid sodium salt]
> 46 µM | COc1cc(/C=C/C(=O)O[C@H]2CC[C@]34C[C@]35CC[C@]3(C)[C@@H]([C@H](C)CCC=C(C)C)CC[C@@]3(C)C5CCC4C2(C)C)ccc1O (some centres not stated) [GAMMA ORYZANOL]
> 46 µM | COC1=C(N2CCNC(C)C2)C(=CC3=C1N(\C=C(C(O)=O)/C3=O)C4CC4)F (configuration not stated) [GATIFLOXACIN]
> 46 µM | Cc1cnc(C(=O)NCCc2ccc([S+](=O)([O-])NC(=O)NC3CCCCC3)cc2)cn1 [GLIPIZIDE]
> 46 µM | COc1ccc(Cl)cc1C(=O)NCCc1ccc([S+](=O)([O-])NC(=O)NC2CCCCC2)cc1 [GLYBURIDE]
> 46 µM | CC(C)(C)c1nnc(N[S+](=O)([O-])c2ccccc2)s1 [GLYBUZOLE]
> 46 µM | O=C(NN1CCCC1)N[S+](=O)([O-])c1ccc(Cl)cc1 [GLYCLOPYRAMIDE]

From the supplement of paper PMC3974653
